In US7951829B2, “Benzimidazole modulators of VR1” (Janssen Pharmaceutica NV, priority 2006, dated 2011):

Target: T1, hVR1 (Homo sapiens, UniProt Q8NER1)
T1 construct: expressed in transfected cells; host or cells: HEK293
Test: Human VR1 (hVR1) Functional Assay (FLIPR intracellular calcium, capsaicin challenge)
Assay type: cell-based
Conditions: capsaicin 0.030 μM, HEK293 cells expressing hVR1; for inhibition at 1 µM: test concentration 1 μM

T1 sequence (Q8NER1 whole entry): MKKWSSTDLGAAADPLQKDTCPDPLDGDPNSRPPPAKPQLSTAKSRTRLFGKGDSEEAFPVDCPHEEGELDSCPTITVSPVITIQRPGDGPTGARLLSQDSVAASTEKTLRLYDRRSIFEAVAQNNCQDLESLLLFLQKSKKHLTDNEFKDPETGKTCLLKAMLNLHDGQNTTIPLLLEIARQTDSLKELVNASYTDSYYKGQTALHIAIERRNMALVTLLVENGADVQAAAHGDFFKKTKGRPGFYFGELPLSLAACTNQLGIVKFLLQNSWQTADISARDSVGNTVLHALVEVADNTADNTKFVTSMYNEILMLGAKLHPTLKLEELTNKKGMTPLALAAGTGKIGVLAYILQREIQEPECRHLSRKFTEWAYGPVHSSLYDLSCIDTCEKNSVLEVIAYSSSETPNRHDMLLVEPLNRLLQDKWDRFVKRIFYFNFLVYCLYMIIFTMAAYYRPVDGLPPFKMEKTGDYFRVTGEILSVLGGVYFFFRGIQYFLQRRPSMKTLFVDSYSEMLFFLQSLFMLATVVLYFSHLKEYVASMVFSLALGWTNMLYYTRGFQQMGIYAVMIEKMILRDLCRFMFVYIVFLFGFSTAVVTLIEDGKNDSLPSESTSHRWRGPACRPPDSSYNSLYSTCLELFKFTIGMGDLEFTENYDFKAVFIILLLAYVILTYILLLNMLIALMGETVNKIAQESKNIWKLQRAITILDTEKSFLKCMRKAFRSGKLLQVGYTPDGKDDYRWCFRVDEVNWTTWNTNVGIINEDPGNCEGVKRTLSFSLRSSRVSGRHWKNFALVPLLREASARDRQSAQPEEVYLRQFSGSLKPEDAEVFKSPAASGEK

Row | SMILES | IC50 | inhibition at 1 µM
1 | Nc1ccccc1-c1ccc2[nH]c(/C=C/c3ccc(C(F)(F)F)cc3)nc2c1 [Cpd 465, (E)-2-{2-[2-(4-trifluoromethyl-phenyl)-vinyl]-1H-benzimidazol-5-yl}-phenylamine] | 363 nM | 75%
2 | CC(C)(O)c1ccccc1-c1ccc2[nH]c(/C=C/c3ccc(S(C)(=O)=O)cc3)nc2c1 [Cpd 84, (E)-2-(2-{2-[2-(4-methanesulfonyl-phenyl)-vinyl]-1H-benzimidazol-5-yl}-phenyl)-propan-2-ol] | 40 nM | 100%
3 | CC(=O)c1ccc(/C=C/c2nc3cc(-c4ccccc4C(C)(C)O)ccc3[nH]2)cc1 [Cpd 448, (E)-1-[4-(2-{5-[2-(1-hydroxy-1-methyl-ethyl)-phenyl]-1H-benzimidazol-2-yl}-vinyl)-phenyl]-ethanone] | 17 nM | 99%
4 | CS(=O)(=O)Nc1ccccc1-c1ccc2[nH]c(/C=C/c3ccc(OCC(F)(F)C(F)(F)F)cc3)nc2c1 [Cpd 101, (E)-N-[2-(2-{2-[4-(2,2,3,3,3-pentafluoro-propoxy)-phenyl]-vinyl}-1H-benzimidazol-5-yl)-phenyl]-methanesulfonamide] | > 500 nM | –
5 | NS(=O)(=O)c1ccccc1-c1ccc2[nH]c(CCc3ccc(Cl)c(C(F)(F)F)c3)nc2c1 [Cpd 390, 2-{2-[2-(4-chloro-3-trifluoromethyl-phenyl)-ethyl]-1H-benzimidazol-5-yl}-benzenesulfonamide] | 7 nM | 96%
6 | NS(=O)(=O)c1ccccc1-c1ccc2[nH]c(/C=C/c3ccc(F)c(C(F)(F)F)c3)nc2c1 [Cpd 369, (E)-2-{2-[2-(4-fluoro-3-trifluoromethyl-phenyl)-vinyl]-1H-benzimidazol-5-yl}-benzenesulfonamide] | 8 nM | 99%
7 | CC(C)(C)NS(=O)(=O)c1ccccc1-c1ccc2[nH]c(C3CC3c3ccc(C(F)(F)F)cc3)nc2c1 (centres unmarked) [Cpd 499, N-tert-butyl-2-{2-[2-(4-trifluoromethyl-phenyl)-cyclopropyl]-1H-benzimidazol-5-yl}-benzenesulfonamide] | – | 7%
8 | NS(=O)(=O)c1ccccc1-c1ccc2[nH]c(C#Cc3ccccc3)nc2c1 [Cpd 490, 2-(2-phenylethynyl-1H-benzimidazol-5-yl)-benzenesulfonamide] | 26 nM | 99%
9 | NS(=O)(=O)c1ccc(F)cc1-c1ccc2[nH]c(/C=C/c3ccc(C(F)(F)F)cc3)nc2c1 [Cpd 441, (E)-4-fluoro-2-{2-[2-(4-trifluoromethyl-phenyl)-vinyl]-1H-benzimidazol-5-yl}-benzenesulfonamide] | – | 40%

Second part, the compound after the results:

Row | IC50 | inhibition at 1 µM | SMILES
10 | 44 nM | 100% | CNS(=O)(=O)c1ccccc1-c1ccc2[nH]c(/C=C/c3ccc(Cl)cc3)nc2c1 [Cpd 347, (E)-2-{2-[2-(4-chloro-phenyl)-vinyl]-1H-benzimidazol-5-yl}-N-methyl-benzenesulfonamide]
11 | 131 nM | 85% | CNS(=O)(=O)c1ccccc1-c1ccc2[nH]c(/C=C/c3ccc(F)cc3C(F)(F)F)nc2c1 [Cpd 330, (E)-2-{2-[2-(4-fluoro-2-trifluoromethyl-phenyl)-vinyl]-1H-benzimidazol-5-yl}-N-methyl-benzenesulfonamide]
12 | – | 22% | CNS(=O)(=O)c1ccccc1-c1ccc2[nH]c(/C=C/c3ccc(C(=O)O)cc3)nc2c1 [Cpd 453, (E)-4-{2-[5-(2-methylsulfamoyl-phenyl)-1H-benzimidazol-2-yl]-vinyl}-benzoic acid]
13 | – | 27% | CNS(=O)(=O)c1ccccc1-c1ccc2[nH]c(/C=C/c3ccc(C(=O)NC(C)C)cc3)nc2c1 [Cpd 450, (E)-N-isopropyl-4-{2-[5-(2-methylsulfamoyl-phenyl)-1H-benzimidazol-2-yl]-vinyl}-benzamide]
14 | 14 nM | 96% | CNS(=O)(=O)c1ccccc1-c1ccc2[nH]c(/C=C/c3ccc(Cl)cc3Cl)nc2c1 [Cpd 337, (E)-2-{2-[2-(2,4-dichloro-phenyl)-vinyl]-1H-benzimidazol-5-yl}-N-methyl-benzenesulfonamide]
